{
  "source": "patent US10597388B2",
  "about": "“Pyridazinone herbicides” (FMC CORPORATION, priority 2014, dated 2020)",
  "assay_type_in_all_cases": "in vivo",
  "key": {"[1]": {"system": "velvetleaf (Abutilon theophrasti)", "assay": "Test A greenhouse herbicide test, pre- and postemergence", "conditions": "240 h; for pest or weed control at 1000 g/ha: 1000 g ai/ha; for pest or weed control at 1000 g/ha / pest or weed control at 500 g/ha: 0 to 100 scale; for pest or weed control at 125 g/ha: 125 g ai/ha; for pest or weed control at 500 g/ha: 500 g ai/ha", "summary_of_the_method": "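Visual injury ratings, 0 (no effect) to 100 (complete control), versus untreated plants after roughly 10 d in a greenhouse. Compounds, formulated in a surfactant-containing non-phytotoxic solvent, were sprayed on loam–sand soil after sowing (pre) or on one- to two-leaf plants 2–10 cm tall (post).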"}, "[2]": {"system": "goosegrass (Eleusine indica)", "assay": "Test E greenhouse herbicide test, pre- and postemergence", "conditions": "Preemergence", "summary_of_the_method": "(§1)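 For each species, sown seed in silt loam and young plants (2 to 18 cm) in a peat/vermiculite medium were each treated with compound dissolved in surfactant-containing, non-phytotoxic solvent. After 14 to 21 d under greenhouse conditions, effects were visually rated, 100 meaning complete control.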"}, "[3]": {"system": "wild poinsettia (Euphorbia heterophylla)", "assay": "Test E greenhouse herbicide test, pre- and postemergence", "summary_of_the_method": "as §1"}, "[4]": {"system": "waterhemp (common waterhemp, Amaranthus rudis)", "assay": "Test E greenhouse herbicide test, pre- and postemergence", "summary_of_the_method": "as §1"}, "[5]": {"conditions": "post-emergence, Postemergence, 0 is no effect, 100 is complete control, read-out: Velvetleaf plant response rating"}, "[6]": {"conditions": "pre-emergence, Preemergence, 0 no effect, 100 complete control, read-out: Plant response rating, Velvetleaf"}, "[7]": {"conditions": "62 g ai/ha, Postemergence, scale 0 to 100 (0 no effect, 100 complete control)"}, "[8]": {"conditions": "62 g ai/ha, Preemergence, scale 0 to 100 (0 no effect, 100 complete control)"}, "[9]": {"conditions": "125 g ai/ha, Postemergence, scale 0 to 100 (0 no effect, 100 complete control)"}, "[10]": {"conditions": "125 g ai/ha, Preemergence, scale 0 to 100 (0 no effect, 100 complete control)"}, "[11]": {"conditions": "250 g ai/ha, Postemergence, scale 0 to 100 (0 no effect, 100 complete control)"}, "[12]": {"conditions": "Postemergence, 16 g ai/ha, visual, scale 0 no effect to 100 complete control"}, "[13]": {"conditions": "Postemergence, 31 g ai/ha, visual, scale 0 no effect to 100 complete control"}, "[14]": {"conditions": "Preemergence, 16 g ai/ha, scale 0 to 100, 0 no effect, 100 complete control"}, "[15]": {"conditions": "Preemergence, 31 g ai/ha, scale 0 to 100, 0 no effect, 100 complete control"}, "[16]": {"conditions": "Preemergence, 250 g ai/ha, visual, scale 0 no effect to 100 complete control"}},
  "note": "Where two headings read alike, the source gives them in different places.",
  "data": [
    {"smiles": "Cc1ccc2sc(C)c(-c3c(O)c(C)nn(C)c3=O)c2c1", "note": "[Compound 1, 4-(2,5-dimethylbenzo[b]thien-3-yl)-5-hydroxy-2,6-dimethyl-3(2H)-pyridazinone]", "values": [
      {"measurement": "pest or weed control at 1000 g/ha", "setting": "[1]; [5]", "value": 100, "unit": "%"},
      {"measurement": "pest or weed control at 1000 g/ha", "setting": "[1]; [6]", "value": 100, "unit": "%"},
      {"measurement": "Plant response rating, Goosegrass", "setting": "[2]; 62 g ai/ha, scale 0 to 100 (0 no effect, 100 complete control)", "value": 5},
      {"measurement": "Plant response rating, Goosegrass", "setting": "[2]; 16 g ai/ha, scale 0 to 100, 0 no effect, 100 complete control", "value": 0},
      {"measurement": "Plant response rating, Goosegrass", "setting": "[2]; 31 g ai/ha, scale 0 to 100, 0 no effect, 100 complete control", "value": 15},
      {"measurement": "Plant response rating, Goosegrass", "setting": "[2]; 125 g ai/ha, visual, scale 0 no effect to 100 complete control", "value": 35},
      {"measurement": "Plant response rating, Goosegrass", "setting": "[2]; 250 g ai/ha, visual, scale 0 no effect to 100 complete control", "value": 25},
      {"measurement": "Plant response rating, Poinsettia, Wild", "setting": "[3]; [7]", "value": 15},
      {"measurement": "Plant response rating, Poinsettia, Wild", "setting": "[3]; [8]", "value": 30},
      {"measurement": "Plant response rating, Poinsettia, Wild", "setting": "[3]; [9]", "value": 15},
      {"measurement": "Plant response rating, Poinsettia, Wild", "setting": "[3]; [10]", "value": 30},
      {"measurement": "Plant response rating, Poinsettia, Wild", "setting": "[3]; [11]", "value": 35},
      {"measurement": "Plant response rating, Poinsettia, Wild", "setting": "[3]; [12]", "value": 5},
      {"measurement": "Plant response rating, Poinsettia, Wild", "setting": "[3]; [13]", "value": 10},
      {"measurement": "Plant response rating, Poinsettia, Wild", "setting": "[3]; [14]", "value": 20},
      {"measurement": "Plant response rating, Poinsettia, Wild", "setting": "[3]; [15]", "value": 30},
      {"measurement": "Plant response rating, Poinsettia, Wild", "setting": "[3]; [16]", "value": 35},
      {"measurement": "Plant response rating, Waterhemp", "setting": "[4]; [7]", "value": 95},
      {"measurement": "Plant response rating, Waterhemp", "setting": "[4]; [8]", "value": 100},
      {"measurement": "Plant response rating, Waterhemp", "setting": "[4]; [9]", "value": 98},
      {"measurement": "Plant response rating, Waterhemp", "setting": "[4]; [10]", "value": 100},
      {"measurement": "Plant response rating, Waterhemp", "setting": "[4]; [11]", "value": 100},
      {"measurement": "Plant response rating, Waterhemp", "setting": "[4]; [12]", "value": 70},
      {"measurement": "Plant response rating, Waterhemp", "setting": "[4]; [13]", "value": 85},
      {"measurement": "Plant response rating, Waterhemp", "setting": "[4]; [14]", "value": 35},
      {"measurement": "Plant response rating, Waterhemp", "setting": "[4]; [15]", "value": 90},
      {"measurement": "Plant response rating, Waterhemp", "setting": "[4]; [16]", "value": 100}
    ]},
    {"smiles": "Cc1nn(C)c(=O)c(-c2c(C)oc3c(C)cccc23)c1O", "note": "[Compound 9, 4-(2,7-dimethyl-3-benzofuranyl)-5-hydroxy-2,6-dimethyl-3(2H)-pyridazinone]", "values": [
      {"measurement": "pest or weed control at 125 g/ha", "setting": "[1]; post-emergence, Postemergence, visual rating after approx. 10 d, 0 to 100 scale (0 no effect, 100 complete control), read-out: Plant response rating, Velvetleaf", "value": 0, "unit": "%"},
      {"measurement": "pest or weed control at 500 g/ha", "setting": "[1]; [5]", "value": 10, "unit": "%"},
      {"measurement": "pest or weed control at 125 g/ha", "setting": "[1]; pre-emergence, Preemergence, 0 to 100 scale where 0 is no effect and 100 is complete control, read-out: Velvetleaf plant response rating", "value": 0, "unit": "%"},
      {"measurement": "pest or weed control at 500 g/ha", "setting": "[1]; [6]", "value": 0, "unit": "%"}
    ]}
  ]
}
